pIC50: −log10 of the molar value. Where a name gives a salt, the structure may show the parent alone.
These compounds were tested against human full length recombinant Mps-1 kinase (Homo sapiens (Human), UniProt P33981) (assay: Mps-1 Kinase Assay (TR-FRET)). Details: 10 μM ATP, 1 μM biotinylated peptide substrate, 60 min at 22° C., read-out: Mps-1 Inhibition, IC50 in M.
Type: biochemical
Method: The human kinase Mps-1 phosphorylates a biotinylated substrate peptide. Detection of the phosphorylated product is achieved by time-resolved fluorescence resonance energy transfer (TR-FRET) from Europium-labelled anti-phospho-Serine/Threonine antibody as donor to streptavidin labelled with cross-linked allophycocyanin (SA-XLent) as acceptor. Compounds are tested for their inhibition of the kinase activity.
N-terminally GST-tagged human full length recombinant Mps-1 kinase (purchased from Invitrogen, Karslruhe, Germany, cat. no PV4071) was used. As substrate for the kinase reaction a biotinylated peptide of the amino-acid sequence […] (C-terminus in amide form, purchased from Biosynthan GmbH, Berlin) was used.
The concentration of Mps-1 in the assay was adjusted to the activity of the enzyme lot and was chosen appropriate to have the assay in the linear range, typical enzyme concentrations were in the range of about 1 nM (final conc. in the 5 μl assay volume).
The resulting mixture was incubated 1 h at 22° C. to allow the binding of the phosphorylated peptide to the anti-phospho(Ser/Thr)-Europium-antibody. Subsequently the amount of phosphorylated substrate was evaluated by measurement of the resonance energy transfer from the Europium-labelled anti-phospho(Ser/Thr) antibody to the Streptavidin-XLent.

Chain of human full length recombinant Mps-1 kinase (P33981 whole entry): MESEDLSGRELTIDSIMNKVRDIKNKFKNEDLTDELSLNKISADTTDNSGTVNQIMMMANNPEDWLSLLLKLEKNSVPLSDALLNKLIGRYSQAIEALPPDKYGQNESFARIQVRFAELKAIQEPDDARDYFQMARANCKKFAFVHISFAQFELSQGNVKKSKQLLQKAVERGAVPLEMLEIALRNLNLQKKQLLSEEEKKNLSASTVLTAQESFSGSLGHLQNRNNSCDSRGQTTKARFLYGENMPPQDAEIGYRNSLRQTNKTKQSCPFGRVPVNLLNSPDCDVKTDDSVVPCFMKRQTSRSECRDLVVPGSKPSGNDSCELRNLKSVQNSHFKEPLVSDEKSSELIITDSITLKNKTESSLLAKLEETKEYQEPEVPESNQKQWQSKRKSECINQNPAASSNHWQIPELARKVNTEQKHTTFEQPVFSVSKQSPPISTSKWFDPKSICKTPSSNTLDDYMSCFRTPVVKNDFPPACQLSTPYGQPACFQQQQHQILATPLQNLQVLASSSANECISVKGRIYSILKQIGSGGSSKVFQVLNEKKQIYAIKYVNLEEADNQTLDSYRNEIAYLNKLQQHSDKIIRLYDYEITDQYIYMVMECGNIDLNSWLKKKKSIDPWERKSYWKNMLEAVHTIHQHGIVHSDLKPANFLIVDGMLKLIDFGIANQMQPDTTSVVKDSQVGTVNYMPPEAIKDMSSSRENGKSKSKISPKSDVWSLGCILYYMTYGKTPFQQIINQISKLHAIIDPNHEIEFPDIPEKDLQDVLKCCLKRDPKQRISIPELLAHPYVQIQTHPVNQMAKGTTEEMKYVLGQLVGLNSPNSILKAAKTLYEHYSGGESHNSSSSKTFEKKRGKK

| pIC50 | SMILES |
| --- | --- |
| ≥ 9.00 | COc1ccc(C(=O)N2CCOCC2)cc1Nc1nc2ccc(-c3ccc(NC(=O)Cc4ccc(F)cc4)cc3)cn2n1 [Example 02.41, 2-(4-fluorophenyl)-N-[4-(2-{[2-methoxy-5-(morpholin-4-ylcarbonyl)phenyl]amino}[,2]-triazolo[1,5-a]pyridin-6-yl)phenyl]acetamide] |
| ≥ 9.00 | Cc1nc(N2CCOCC2)ccc1Nc1nc2ccc(-c3ccc(NC(=O)Cc4ccc(F)cc4)cc3)cn2n1 [Example 02.42, 2-(4-fluorophenyl)-N-[4-(2-{[2-methyl-6-(morpholin-4-yl)pyridin-3-yl]amino}[,2]-triazolo[1,5-a]pyridin-6-yl)phenyl]acetamide] |
| ≥ 9.00 | Cc1nc(N2CCCC2)ccc1Nc1nc2ccc(-c3ccc(NC(=O)Cc4ccc(F)cc4)cc3)cn2n1 [Example 02.43, 2-(4-fluorophenyl)-N-[4-(2-{[2-methyl-6-(pyrrolidin-1-yl)pyridin-3-yl]amino}[,2]-triazolo[1,5-a]pyridin-6-yl)phenyl]acetamide] |
| 8.57 | COc1cc(C(=O)N2CCOCC2)ccc1Nc1nc2ccc(-c3ccc(C(=O)NCC4CC4)cc3)cn2n1 [Example 03.01, N-(cyclopropylmethyl)-4-(2-{[2-methoxy-4-(morpholin-4-ylcarbonyl)phenyl]amino}[,2]-triazolo[1,5-a]pyridin-6-yl)benzamide] |
| ≥ 9.00 | CCOc1cc(C(=O)N2CCOCC2)ccc1Nc1nc2ccc(-c3ccc(C(=O)NCC4CC4)cc3)cn2n1 [Example 03.02, N-(cyclopropylmethyl)-4-(2-{[2-ethoxy-4-(morpholin-4-ylcarbonyl)phenyl]amino}[,2]-triazolo[1,5-a]pyridin-6-yl)benzamide] |
| 8.26 | COc1cc(C2=NC(C)(C)CO2)ccc1Nc1nc2ccc(-c3ccc(C(=O)NCC4CC4)cc3)cn2n1 [Example 03.03, N-(cyclopropylmethyl)-4-(2-{[4-(4,4-dimethyl-4,5-dihydro-1,3-oxazol-2-yl)-2-methoxyphenyl]amino}[,2]-triazolo[1,5-a]pyridin-6-yl)benzamide] |
| ≥ 9.00 | CCOc1cc(C(=O)NC2CCN(C)CC2)ccc1Nc1nc2ccc(-c3ccc(C(=O)NCC4CC4)cc3)cn2n1 [Example 03.04, 4-[(6-{4-[(cyclopropylmethyl)carbamoyl]phenyl}[,2]triazolo[1,5-a]pyridin-2-yl)amino]-3-ethoxy-N-(1-methylpiperidin-4-yl)benzamide] |
| 8.20 | COc1cc(N2CCN(C)CC2)ccc1Nc1nc2ccc(-c3ccc(C(=O)NCC4CC4)cc3)cn2n1 [Example 03.05, N-(cyclopropylmethyl)-4-(2-{[2-methoxy-4-(4-methylpiperazin-1-yl)phenyl]amino}[,2]-triazolo[1,5-a]pyridin-6-yl)benzamide trifluoroacetate] |
| ≥ 9.00 | O=C(NCC1CC1)c1ccc(-c2ccc3nc(Nc4ccc(C(=O)N5CCOCC5)cc4OCC(F)(F)F)nn3c2)cc1 [Example 03.06, N-(cyclopropylmethyl)-4-(2-{[4-(morpholin-4-ylcarbonyl)-2-(2,2,2-trifluoroethoxy)phenyl]amino}[,2]-triazolo[1,5-a]pyridin-6-yl)benzamide] |
| ≥ 9.00 | COc1cc(C(=O)N2CC3(COC3)C2)ccc1Nc1nc2ccc(-c3ccc(C(=O)NCC4CC4)cc3)cn2n1 [Example 03.07, N-(cyclopropylmethyl)-4-(2-{[2-methoxy-4-(2-oxa-6-azaspiro[3.3]hept-6-ylcarbonyl)phenyl]amino}[,2]triazolo[1,5-a]pyridin-6-yl)benzamide] |
| ≥ 9.00 | COc1cc(C(=O)N2CCOCC2)ccc1Nc1nc2ccc(-c3ccc(C(=O)NCc4ccc(F)cc4)cc3)cn2n1 [Example 04.01, N-(4-Fluorbenzyl)-4-(2-{[2-methoxy-4-(morpholin-4-ylcarbonyl)phenyl]amino}[,2]-triazolo[1,5-a]pyridin-6-yl)benzamid] |
| ≥ 9.00 | CCOc1cc(C(=O)N2CCOCC2)ccc1Nc1nc2ccc(-c3ccc(C(=O)NCc4ccc(F)cc4)cc3)cn2n1 [Example 04.02, 4-(2-{[2-Ethoxy-4-(morpholin-4-ylcarbonyl)phenyl]amino}[,2]-triazolo[1,5-a]pyridin-6-yl)-N-(4-fluorbenzyl)benzamid] |
| ≥ 9.00 | COc1cc(N2CCOC2=O)ccc1Nc1nc2ccc(-c3ccc(C(=O)NCc4ccc(F)cc4)cc3)cn2n1 [Example 04.03, N-(4-fluorobenzyl)-4-(2-{[2-methoxy-4-(2-oxo-1,3-oxazolidin-3-yl)phenyl]amino}[,2]-triazolo[1,5-a]pyridin-6-yl)benzamide] |
| ≥ 9.00 | CCOc1cc(N2CCOC2=O)ccc1Nc1nc2ccc(-c3ccc(C(=O)NCc4ccc(F)cc4)cc3)cn2n1 [Example 04.04, 4-(2-{[2-ethoxy-4-(2-oxo-1,3-oxazolidin-3-yl)phenyl]amino}[,2]triazolo[1,5-a]pyridin-6-yl)-N-(4-fluorobenzyl)benzamide] |
| ≥ 9.00 | COc1cc(C2=NCCO2)ccc1Nc1nc2ccc(-c3ccc(C(=O)NCc4ccc(F)cc4)cc3)cn2n1 [Example 04.05, 4-(2-{[4-(4,5-dihydro-1,3-oxazol-2-yl)-2-methoxyphenyl]amino}[,2]-triazolo[1,5-a]pyridin-6-yl)-N-(4-fluorobenzyl)benzamide] |
| ≥ 9.00 | COc1cc(C(=O)N2C[C@@H]3C[C@H]2CO3)ccc1Nc1nc2ccc(-c3ccc(C(=O)NCc4ccc(F)cc4)cc3)cn2n1 [Example 04.06, N-(4-fluorobenzyl)-4-[2-({2-methoxy-4-[(1S,4S)-2-oxa-5-azabicyclo[2.2.1]hept-5-ylcarbonyl]phenyl}amino)[,2]triazolo[1,5-a]pyridin-6-yl]benzamide] |
| ≥ 9.00 | COc1cc(C(=O)N2CC3(COC3)C2)ccc1Nc1nc2ccc(-c3ccc(C(=O)NCc4ccc(F)cc4)cc3)cn2n1 [Example 04.07, N-(4-fluorobenzyl)-4-(2-{[2-methoxy-4-(2-oxa-6-azaspiro[3.3]hept-6-ylcarbonyl)phenyl]amino}[,2]triazolo[1,5-a]pyridin-6-yl)benzamide] |
| ≥ 9.00 | COc1cc(C(=O)N2CC(O)C2)ccc1Nc1nc2ccc(-c3ccc(C(=O)NCc4ccc(F)cc4)cc3)cn2n1 [Example 04.08, N-(4-fluorobenzyl)-4-[2-({4-[(3-hydroxyazetidin-1-yl)carbonyl]-2-methoxyphenyl}amino)[,2]-triazolo[1,5-a]pyridin-6-yl]benzamide] |
| ≥ 9.00 | COc1cc(C(=O)N2CCS(=O)(=O)CC2)ccc1Nc1nc2ccc(-c3ccc(C(=O)NCc4ccc(F)cc4)cc3)cn2n1 [Example 04.09, 4-[2-({4-[(1,1-dioxidothiomorpholin-4-yl)carbonyl]-2-methoxyphenyl}amino)[,2]triazolo[1,5-a]pyridin-6-yl]-N-(4-fluorobenzyl)benzamide] |
| ≥ 9.00 | COc1cc(C(=O)N2CCC(O)CC2)ccc1Nc1nc2ccc(-c3ccc(C(=O)NCc4ccc(F)cc4)cc3)cn2n1 [Example 04.10, N-(4-fluorobenzyl)-4-[2-({4-[(4-hydroxypiperidin-1-yl)carbonyl]-2-methoxyphenyl}amino)[,2]triazolo[1,5-a]pyridin-6-yl]benzamide] |
| ≥ 9.00 | COc1cc(C(=O)NC2COC2)ccc1Nc1nc2ccc(-c3ccc(C(=O)NCc4ccc(F)cc4)cc3)cn2n1 [Example 04.11, 4-[(6-{4-[(4-fluorobenzyl)carbamoyl]phenyl}[,2]triazolo[1,5-a]pyridin-2-yl)amino]-3-methoxy-N-(oxetan-3-yl)benzamide] |
| ≥ 9.00 | CCOc1cc(C(=O)N2CC3(COC3)C2)ccc1Nc1nc2ccc(-c3ccc(C(=O)NCc4ccc(F)cc4)cc3)cn2n1 [Example 04.12, 4-(2-{[2-ethoxy-4-(2-oxa-6-azaspiro[3.3]hept-6-ylcarbonyl)phenyl]amino}[,2]-triazolo[1,5-a]pyridin-6-yl)-N-(4-fluorobenzyl)benzamide] |
| ≥ 9.00 | CCOc1cc(C(=O)N2CCN(C(C)=O)CC2)ccc1Nc1nc2ccc(-c3ccc(C(=O)NCc4ccc(F)cc4)cc3)cn2n1 [Example 04.13, 4-[2-({4-[(4-acetylpiperazin-1-yl)carbonyl]-2-ethoxyphenyl}amino)[,2]triazolo[1,5-a]pyridin-6-yl]-N-(4-fluorobenzyl)benzamide] |
| ≥ 9.00 | CCOc1cc(C(=O)N2CC(O)C2)ccc1Nc1nc2ccc(-c3ccc(C(=O)NCc4ccc(F)cc4)cc3)cn2n1 [Example 04.14, 4-[2-({2-ethoxy-4-[(3-hydroxyazetidin-1-yl)carbonyl]phenyl}amino)[,2]triazolo[1,5-a]pyridin-6-yl]-N-(4-fluorobenzyl)benzamide] |
| ≥ 9.00 | O=C(NCc1ccc(F)cc1)c1ccc(-c2ccc3nc(Nc4ccc(C(=O)N5CC6(COC6)C5)cc4OCC(F)(F)F)nn3c2)cc1 [Example 04.15, N-(4-fluorobenzyl)-4-(2-{[4-(2-oxa-6-azaspiro[3.3]hept-6-ylcarbonyl)-2-(2,2,2-trifluoroethoxy)phenyl]amino}[,2]-triazolo[1,5-a]pyridin-6-yl)benzamide] |
| ≥ 9.00 | O=C(NCc1ccc(F)cc1)c1ccc(-c2ccc3nc(Nc4ccc(C(=O)N5CC(O)C5)cc4OCC(F)(F)F)nn3c2)cc1 [Example 04.16, N-(4-fluorobenzyl)-4-[2-({4-[(3-hydroxyazetidin-1-yl)carbonyl]-2-(2,2,2-trifluoroethoxy)phenyl}amino)[,2]triazolo[1,5-a]pyridin-6-yl]benzamide] |

Reference: US9555022B2, “Substituted triazolopyridines” (Bayer Intellectual Property GmbH, priority 2010, dated 2017)
